Data published in ChEMBL document CHEMBL3885881, “DrugMatrix”.

Organism: Rattus norvegicus
Assay: DrugMatrix - Regimen: Daily Repeat
Assay type: toxicity, organism-based, Sprague-Dawley
Design: regimen Daily Repeat, gender Male, age 6-8 weeks
Conditions: in vivo, po, route oral GAVAGE, vehicle 100 % WATER; for ABSOLUTE BASOPHIL / ABSOLUTE EOSINOPHIL / ABSOLUTE LYMPHOCYTE / ABSOLUTE MONOCYTE / ABSOLUTE SEGMENTED NEUTROPHIL / BASOPHIL / EOSINOPHIL / ERYTHROCYTE COUNT / HEMATOCRIT / HEMOGLOBIN / LEUKOCYTE COUNT / LYMPHOCYTE / MEAN CORPUSCULAR HEMOGLOBIN / MEAN CORPUSCULAR HEMOGLOBIN CONCENTRATION / MEAN CORPUSCULAR VOLUME / MONOCYTE / NEUTROPHIL / NUCLEATED RED BLOOD CELLS / PLATELET COUNT: tissue Blood; for ALANINE AMINOTRANSFERASE / ALBUMIN / ALKALINE PHOSPHATASE / ASPARTATE AMINOTRANSFERASE / BLOOD UREA NITROGEN / CARBON DIOXIDE / CHLORIDE / CHOLESTEROL / CREATINE PHOSPHOKINASE / CREATININE / GLUCOSE / LACTATE DEHYDROGENASE / LIPASE / PHOSPHORUS / POTASSIUM / SODIUM / TOTAL BILIRUBIN / TOTAL PROTEIN / URIC ACID: tissue Plasma
[1] = 500 mg/kg, 120 h, dose level Low, time 5 day
[2] = 2000 mg/kg, 72 h, dose level High, time 3 day
[3] = 2000 mg/kg, 120 h, dose level High, time 5 day

## NCCCCCC(=O)O [AMINOCAPROIC ACID]
[1]
  ABSOLUTE BASOPHIL: 0 CELLS/uL
  ABSOLUTE EOSINOPHIL: 0 CELLS/uL
  ABSOLUTE LYMPHOCYTE: 13712 CELLS/uL
  ABSOLUTE MONOCYTE: 316 CELLS/uL
  ABSOLUTE SEGMENTED NEUTROPHIL: 872 CELLS/uL
  BASOPHIL: 0%
  EOSINOPHIL: 0%
  ERYTHROCYTE COUNT: 5.42 x10E6/uL
  HEMATOCRIT: 34.37%
  HEMOGLOBIN: 13.87 G/DL
  LEUKOCYTE COUNT: 14.9 x10E3/uL
  LYMPHOCYTE: 92.33%
  MEAN CORPUSCULAR HEMOGLOBIN: 25.67 pg
  MEAN CORPUSCULAR HEMOGLOBIN CONCENTRATION: 40.37 G/DL
  MEAN CORPUSCULAR VOLUME: 63.53 fL
  MONOCYTE: 2%
  NEUTROPHIL: 5.67%
  NUCLEATED RED BLOOD CELLS: 0 /100WBC
  PLATELET COUNT: 1257.67 x10E3/uL
  ALANINE AMINOTRANSFERASE: 51.33 u/L
  ALBUMIN: 4.4 G/DL
  ALKALINE PHOSPHATASE: 417.33 u/L
  ASPARTATE AMINOTRANSFERASE: 75.67 u/L
  BLOOD UREA NITROGEN: 15.33 mg/dL
  CARBON DIOXIDE: 26.67 mmol/L
  CHLORIDE: 101.67 MEQ/L
  CHOLESTEROL: 72.67 mg/dL
  CREATINE PHOSPHOKINASE: 253.67 u/L
  CREATININE: 0.15 mg/dL
  GLUCOSE: 153.33 mg/dL
  LACTATE DEHYDROGENASE: 102.33 u/L
  LIPASE: 9 u/L
  PHOSPHORUS: 11.07 mg/dL
  POTASSIUM: 6.75 MEQ/L
  SODIUM: 143.73 MEQ/L
  TOTAL BILIRUBIN: 0.2 mg/dL
  TOTAL PROTEIN: 6.1 G/DL
  URIC ACID: 1.57 mg/dL
[2]
  ABSOLUTE BASOPHIL: 0 CELLS/uL
  ABSOLUTE EOSINOPHIL: 99.33 CELLS/uL
  ABSOLUTE LYMPHOCYTE: 12832.33 CELLS/uL
  ABSOLUTE MONOCYTE: 0 CELLS/uL
  ABSOLUTE SEGMENTED NEUTROPHIL: 1535 CELLS/uL
  BASOPHIL: 0%
  EOSINOPHIL: 0.67%
  ERYTHROCYTE COUNT: 5.61 x10E6/uL
  HEMATOCRIT: 36.13%
  HEMOGLOBIN: 14.13 G/DL
  LEUKOCYTE COUNT: 14.47 x10E3/uL
  LYMPHOCYTE: 88.67%
  MEAN CORPUSCULAR HEMOGLOBIN: 25.17 pg
  MEAN CORPUSCULAR HEMOGLOBIN CONCENTRATION: 39.1 G/DL
  MEAN CORPUSCULAR VOLUME: 64.4 fL
  MONOCYTE: 0%
  NEUTROPHIL: 10.67%
  NUCLEATED RED BLOOD CELLS: 0.33 /100WBC
  PLATELET COUNT: 1333.33 x10E3/uL
  ALANINE AMINOTRANSFERASE: 41.67 u/L
  ALBUMIN: 4.27 G/DL
  ALKALINE PHOSPHATASE: 386.67 u/L
  ASPARTATE AMINOTRANSFERASE: 89 u/L
  BLOOD UREA NITROGEN: 18 mg/dL
  CARBON DIOXIDE: 22.67 mmol/L
  CHLORIDE: 103 MEQ/L
  CHOLESTEROL: 61.33 mg/dL
  CREATINE PHOSPHOKINASE: 502 u/L
  CREATININE: 0.2 mg/dL
  GLUCOSE: 180 mg/dL
  LACTATE DEHYDROGENASE: 295 u/L
  LIPASE: 11 u/L
  PHOSPHORUS: 11.37 mg/dL
  POTASSIUM: 5.97 MEQ/L
  SODIUM: 144.2 MEQ/L
  TOTAL BILIRUBIN: 0.27 mg/dL
  TOTAL PROTEIN: 5.77 G/DL
  URIC ACID: 1.03 mg/dL
[3]
  ABSOLUTE BASOPHIL: 0 CELLS/uL
  ABSOLUTE EOSINOPHIL: 109 CELLS/uL
  ABSOLUTE LYMPHOCYTE: 13720 CELLS/uL
  ABSOLUTE MONOCYTE: 222 CELLS/uL
  ABSOLUTE SEGMENTED NEUTROPHIL: 1882.33 CELLS/uL
  BASOPHIL: 0%
  EOSINOPHIL: 0.67%
  ERYTHROCYTE COUNT: 5.57 x10E6/uL
  HEMATOCRIT: 34.6%
  HEMOGLOBIN: 13.8 G/DL
  LEUKOCYTE COUNT: 15.93 x10E3/uL
  LYMPHOCYTE: 86.33%
  MEAN CORPUSCULAR HEMOGLOBIN: 24.83 pg
  MEAN CORPUSCULAR HEMOGLOBIN CONCENTRATION: 39.87 G/DL
  MEAN CORPUSCULAR VOLUME: 62.2 fL
  MONOCYTE: 1.33%
  NEUTROPHIL: 11.67%
  NUCLEATED RED BLOOD CELLS: 0 /100WBC
  PLATELET COUNT: 1463.33 x10E3/uL
  ALANINE AMINOTRANSFERASE: 41.67 u/L
  ALBUMIN: 4.27 G/DL
  ALKALINE PHOSPHATASE: 291 u/L
  ASPARTATE AMINOTRANSFERASE: 77 u/L
  BLOOD UREA NITROGEN: 17.67 mg/dL
  CARBON DIOXIDE: 25.33 mmol/L
  CHLORIDE: 101 MEQ/L
  CHOLESTEROL: 60.67 mg/dL
  CREATINE PHOSPHOKINASE: 281 u/L
  CREATININE: 0.15 mg/dL
  GLUCOSE: 157.33 mg/dL
  LACTATE DEHYDROGENASE: 298.67 u/L
  LIPASE: 9.33 u/L
  PHOSPHORUS: 10.73 mg/dL
  POTASSIUM: 6.02 MEQ/L
  SODIUM: 141.63 MEQ/L
  TOTAL BILIRUBIN: 0.17 mg/dL
  TOTAL PROTEIN: 6.07 G/DL
  URIC ACID: 0.8 mg/dL
